Experimental findings from patent publication US10118916B2, “Modulators of cystic fibrosis transmembrane conductance regulator protein” (AbbVie S.à.r.l., priority 2016, dated 2018) are described below.

Each structure is given as a SMILES string.

For the assay, the target named is T1, F508delCFTR (Homo sapiens, UniProt P13569, DEL508-508).
T1 construct: expressed in transfected cells; host or cells: CFBE41o- (human lung derived epithelial cell line), doxycycline-inducible
In words: Cell Surface Expression-Horse Radish Peroxidase (CSE-HRP) assay. The following applies: CFBE41o-F508delCFTR-HRP cells; for EC50: F508delCFTR cell surface expression, luminescence, 18-24 hours at 33° C., highest concentration 20 μM; for Maximum % activity: maximum at any tested concentration, normalized to on-plate positive control (3 μM). Format: cell-based. From the text:
Cell Surface Expression-Horse Radish Peroxidase (CSE-HRP) Assay:
A cellular assay for measuring the F508delCFTR cell surface expression after correction with test compounds was developed in human lung derived epithelial cell line (CFBE41o-) (Veit G et al, (2012) Mol Biol Cell. 23(21): 4188-4202). This was achieved by expressing the F508delCFTR mutation along with a horseradish peroxidase (HRP) in the fourth exofacial loop and then measuring the HRP activity using luminescence readout from these cells, CFBE41o-F508delCFTR-HRP, that were incubated overnight with the test corrector compounds. Briefly, for this primary assay, the CFBE41o-F508delCFTR-HRP cells were plated in 384-well plates (Greiner Bio-one; Cat 781080) at 4,000 cells/well along with 0.5 μg/mL doxycycline to induce the F508delCFTR-HRP expression and further incubated at 37° C., 5% CO2 for 72 hours. The test compounds were then added at the required concentrations and further incubated for 18-24 hours at 33° C. The highest concentration tested was 20 μM with an 8-point concentration response curve using a 3-fold dilution. Three replicate plates were run to determine one EC50. All plates contained negative controls (dimethyl sulfoxide, DMSO) and positive controls (3 μM of 3-[(2R,4R)-4-({[1-(2,2-difluoro-1,3-benzodioxol-5-yl)cyclopropyl]carbonyl}amino)-7-methoxy-3,4-dihydro-2H-chromen-2-yl]benzoic acid) as well as on-plate concentration response of the positive control. Post incubation, the plates were washed 5× times with Dulbecco's phosphate buffered saline (DPBS), followed by the addition of the HRP substrate, luminol (50 μL), and measuring the HRP activity using luminescence readout on EnVision® Multilabel Plate Reader (Perkin Elmer; product number 2104-0010). The raw counts from the experiment are analyzed using Accelrys® Assay Explorer v3.3.
Z′ greater than 0.5 was used as passing quality control criteria for the plates.
The Z′ is defined as: 1−[3*SDPositive Control+3*SDNegative Control/Absolute(MeanPositive Control−MeanNegative Control)] wherein “SD” is standard deviation.
The % activity measured at each of the 8 test concentrations of the test compound was normalized to the on-plate positive control using the following formula: % activity=[(test compound response−DMSO response)/(positive control response−DMSO response)]*100
The maximum % activity achieved for the test compound at any tested concentration is presented in Table 1 along with the EC50 calculated using the following general sigmoidal curve with variable Hill slope equation (described as Model 42 in the Accelrys® Assay Explorer v3.3 software): y=(a−d)/(1+(x/c)^b)+d
General sigmoidal curve with concentration, response, top, bottom, EC50 and Hill slope.
This model describes a sigmoidal curve with an adjustable baseline, a. The equation can be used to fit curves where response is either increasing or decreasing with respect to the independent variable, “x”. • “x” is a concentration of drug under test. • “y” is the response. • “a” is the maximum response, and “d” is the minimum response • “c” is the inflection point (EC50) for the curve. That is, “y” is halfway between the lower and upper asymptotes when x=c. • “b” is the slope-factor or Hill coefficient. The sign of b is positive when the response increases with increasing dose and is negative when the response decreases with increasing dose (inhibition).

T1 sequence (P13569 with tags, fused parts or gaps DEL508-508): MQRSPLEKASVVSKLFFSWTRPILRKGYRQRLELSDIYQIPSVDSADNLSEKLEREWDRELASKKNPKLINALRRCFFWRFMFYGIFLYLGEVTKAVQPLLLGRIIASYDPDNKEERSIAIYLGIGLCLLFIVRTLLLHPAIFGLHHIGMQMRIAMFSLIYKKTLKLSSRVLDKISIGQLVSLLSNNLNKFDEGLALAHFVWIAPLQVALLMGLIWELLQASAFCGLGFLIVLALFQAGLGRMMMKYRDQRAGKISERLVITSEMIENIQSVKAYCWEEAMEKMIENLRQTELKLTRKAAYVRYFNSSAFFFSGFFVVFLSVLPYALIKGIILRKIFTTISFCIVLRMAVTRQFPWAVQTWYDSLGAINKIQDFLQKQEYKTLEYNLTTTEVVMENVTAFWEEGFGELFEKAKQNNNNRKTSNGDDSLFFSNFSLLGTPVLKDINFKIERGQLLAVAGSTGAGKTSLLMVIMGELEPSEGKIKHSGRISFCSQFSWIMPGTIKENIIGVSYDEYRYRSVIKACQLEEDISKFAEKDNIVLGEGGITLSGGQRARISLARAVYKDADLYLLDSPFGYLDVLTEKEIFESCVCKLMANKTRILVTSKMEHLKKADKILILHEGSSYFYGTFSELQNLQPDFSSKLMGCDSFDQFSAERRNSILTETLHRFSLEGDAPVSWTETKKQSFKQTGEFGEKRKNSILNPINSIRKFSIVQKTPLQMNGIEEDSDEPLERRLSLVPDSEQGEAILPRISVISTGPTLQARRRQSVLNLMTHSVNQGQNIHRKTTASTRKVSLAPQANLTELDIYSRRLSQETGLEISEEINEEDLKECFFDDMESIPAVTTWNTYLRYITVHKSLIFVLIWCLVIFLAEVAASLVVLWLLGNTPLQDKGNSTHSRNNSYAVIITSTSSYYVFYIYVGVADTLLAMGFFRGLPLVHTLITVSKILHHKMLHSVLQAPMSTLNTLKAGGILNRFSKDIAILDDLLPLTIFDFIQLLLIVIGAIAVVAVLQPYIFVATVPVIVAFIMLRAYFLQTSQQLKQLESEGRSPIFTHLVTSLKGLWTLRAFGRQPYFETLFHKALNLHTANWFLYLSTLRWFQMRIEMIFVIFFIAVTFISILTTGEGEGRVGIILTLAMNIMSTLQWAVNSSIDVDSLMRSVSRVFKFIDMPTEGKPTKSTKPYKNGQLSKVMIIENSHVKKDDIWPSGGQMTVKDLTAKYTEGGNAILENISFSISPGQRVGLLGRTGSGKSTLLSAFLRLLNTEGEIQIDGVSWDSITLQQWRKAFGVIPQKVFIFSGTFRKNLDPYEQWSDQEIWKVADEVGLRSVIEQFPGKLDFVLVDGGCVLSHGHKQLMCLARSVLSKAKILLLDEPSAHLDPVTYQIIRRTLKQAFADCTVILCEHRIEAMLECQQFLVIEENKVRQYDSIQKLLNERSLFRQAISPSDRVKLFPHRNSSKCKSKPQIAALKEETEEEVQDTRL

The term EC50 denotes the concentration at which the effect is half-maximal. A lower EC50 goes with higher potency in that assay. `COc1ccc2c(c1)OC(c1ccc(OC)c(OC)c1)CC2NC(=O)C(C)(C)c1ccc(Cl)cc1` (stereo not shown) [Example 22, 2-(4-chlorophenyl)-N-[2-(3,4-dimethoxyphenyl)-7-methoxy-3,4-dihydro-2H-1-benzopyran-4-yl]-2-methylpropanamide] registered an EC50 of 0.99 µM and a Maximum % activity of 56.6%.

`COc1ccc2c(c1)OC(c1ccc(OC)c(OC)c1)CC2NC(=O)C1(c2ccc(F)c(F)c2)CCC1` (stereo not shown) [Example 17, 1-(3,4-difluorophenyl)-N-[2-(3,4-dimethoxyphenyl)-7-methoxy-3,4-dihydro-2H-1-benzopyran-4-yl]cyclobutane-1-carboxamide]: a half-maximal response (EC50) required 3.32 µM and the Maximum % activity is given as 27.6%.

In turn, `COc1ccc2c(c1)O[C@@H](c1ccc(C(=O)O)cc1)C[C@H]2NC(=O)C(C)(C)c1ccc(OC(F)(F)F)cc1` [Example 109, 4-[(2R,4R)-7-methoxy-4-{2-methyl-2-[4-(trifluoromethoxy)phenyl]propanamido}-3,4-dihydro-2H-1-benzopyran-2-yl]benzoic acid] registered a half-maximal effective concentration (EC50) of 1.36 µM and a Maximum % activity of 93.0%.

The molecule `COc1ccc2c(c1)OCC2(C)C(=O)N[C@@H]1C[C@H](c2cccc(C(=O)O)c2)Oc2ccccc21` (stereo partly drawn) [Example 56, 3-{(2R,4R)-4-[(6-methoxy-3-methyl-2,3-dihydro-1-benzofuran-3-carbonyl)amino]-3,4-dihydro-2H-1-benzopyran-2-yl}benzoic acid] yielded a concentration for a half-maximal effect (EC50) of 1.3 µM and a Maximum % activity of 71.4%.

Turning to `COc1ccc2c(c1)O[C@@H](c1ccc(C(=O)O)cc1)C[C@H]2NC(=O)C1(c2cccc(F)c2)CC1` [Example 85, 4-[(2R,4R)-4-{[1-(3-fluorophenyl)cyclopropane-1-carbonyl]amino}-7-methoxy-3,4-dihydro-2H-1-benzopyran-2-yl]benzoic acid], the concentration giving a half-maximal response (EC50) amounted to 0.72 µM and the Maximum % activity is reported as 50.4%.

`COC(=O)c1cccc([C@H]2C[C@@H](NC(=O)C3(C)CCc4ccc(OC(F)(F)F)cc43)c3ccc(OC)cc3O2)c1` (stereo partly drawn) [Example 57, methyl 3-[(2R,4R)-7-methoxy-4-{[1-methyl-6-(trifluoromethoxy)-2,3-dihydro-1H-indene-1-carbonyl]amino}-3,4-dihydro-2H-1-benzopyran-2-yl]benzoate] gave an EC50 greater than 20 µM and a Maximum % activity of 2.3%.

Turning to `COc1ccc2c(c1)O[C@@H](c1ccc(C(=O)O)cc1)C[C@H]2NC(=O)[C@@]1(C)CCc2cc(C)ccc21` (single isomer, unassigned) [Example 9], it took 0.18 µM to reach a half-maximal effect (EC50) and the Maximum % activity worked out at 95.5%.

With `COc1ccc2c(c1)O[C@@H](c1ccc(C(=O)O)cc1)C[C@H]2NC(=O)C1(c2ccccc2)CC1(F)F` (mixture of isomers) [Example 105, 4-{(2R,4R)-4-[(2,2-difluoro-1-phenylcyclopropane-1-carbonyl)amino]-7-methoxy-3,4-dihydro-2H-1-benzopyran-2-yl}benzoic acid], the 50% effective concentration (EC50) worked out at 1.1 µM and the Maximum % activity is 32.0%.

The molecule `C[C@]1(C(=O)N[C@@H]2C[C@H](c3cccc(C(=O)O)c3)Oc3ccccc32)CCc2ccc(Cl)cc21` [Example 54, 3-[(2R,4R)-4-{[(1S)-6-chloro-1-methyl-2,3-dihydro-1H-indene-1-carbonyl]amino}-3,4-dihydro-2H-1-benzopyran-2-yl]benzoic acid] came in with an EC50 greater than 20 µM and a Maximum % activity of 10.4%.

For the molecule `COc1ccc2c(c1)O[C@@H](c1ccc(C(=O)O)cc1)C[C@H]2NC(=O)C(C)(C)Oc1ccc(Cl)cc1` [Example 119, 4-{(2R,4R)-4-[2-(4-chlorophenoxy)-2-methylpropanamido]-7-methoxy-3,4-dihydro-2H-1-benzopyran-2-yl}benzoic acid], the midpoint of the response, the EC50, lay at 2.98 µM and the Maximum % activity came out at 27.4%.

Consider `COc1ccc2c(c1)O[C@@H](c1ccc(C(=O)O)cc1)C[C@H]2NC(=O)C1(c2ccc(Cl)cc2)CCCC1` [Example 98, 4-[(2R,4R)-4-{[1-(4-chlorophenyl)cyclopentane-1-carbonyl]amino}-7-methoxy-3,4-dihydro-2H-1-benzopyran-2-yl]benzoic acid], for which the EC50 is greater than 20 µM and the Maximum % activity is 13.0%.

For the molecule `COc1ccc2c(c1)O[C@@H](c1cccc(C(=O)O)c1)C[C@H]2NC(=O)C(C)(C)c1ccc(OC(F)(F)F)cc1` [Example 40, 3-[(2R,4R)-7-methoxy-4-{2-methyl-2-[4-(trifluoromethoxy)phenyl]propanamido}-3,4-dihydro-2H-1-benzopyran-2-yl]benzoic acid], the EC50 worked out at 1.7 µM and the Maximum % activity was 81.0%.

Regarding `COc1ccc2c(c1)O[C@@H](c1cccc(C(=O)O)c1)C[C@H]2NC(=O)[C@]1(C)CCc2cc(C)ccc21` (single isomer, unassigned) [Example 125], the EC50 was 0.44 µM and the Maximum % activity is 70.7%.

The molecule `COc1ccc2c(c1)O[C@@H](c1ccc(C(=O)O)cc1)C[C@H]2NC(=O)C1(c2ccccc2Br)CC1` [Example 89, 4-[(2R,4R)-4-{[1-(2-bromophenyl)cyclopropane-1-carbonyl]amino}-7-methoxy-3,4-dihydro-2H-1-benzopyran-2-yl]benzoic acid] came in with an EC50 of 0.75 µM and a Maximum % activity of 42.0%.

For the molecule `COc1ccc2c(c1)O[C@@H](c1ccc(C(=O)O)cc1)C[C@H]2NC(=O)C1(C)CCc2cc(C)ccc21` (stereo partly drawn) [Example 7, 4-{(2R,4R)-4-[(1,5-dimethyl-2,3-dihydro-1H-indene-1-carbonyl)amino]-7-methoxy-3,4-dihydro-2H-1-benzopyran-2-yl}benzoic acid], the midpoint of the response, the EC50, lay at 0.16 µM and the Maximum % activity was 90.1%.

As to `COc1ccc2c(c1)O[C@@H](c1ccc(C(=O)O)cc1)C[C@H]2NC(=O)C1(c2cccc(F)c2)CCCC1` [Example 90, 4-[(2R,4R)-4-{[1-(3-fluorophenyl)cyclopentane-1-carbonyl]amino}-7-methoxy-3,4-dihydro-2H-1-benzopyran-2-yl]benzoic acid], the EC50 was greater than 20 µM and the Maximum % activity is given as 8.1%.

In turn, `COc1ccc2c(c1)O[C@@H](c1ccc(C(=O)O)cc1)C[C@H]2NC(=O)C(C)(C)Oc1ccc(F)cc1` [Example 118, 4-{(2R,4R)-4-[2-(4-fluorophenoxy)-2-methylpropanamido]-7-methoxy-3,4-dihydro-2H-1-benzopyran-2-yl}benzoic acid] came in with an EC50 greater than 20 µM and a Maximum % activity of 16.3%.

`COc1ccc2c(c1)[C@@](C)(C(=O)N[C@@H]1C[C@H](c3cccc(C(=O)O)c3)Oc3ccccc31)CC2` [Example 47, 3-[(2R,4R)-4-{[(1S)-6-methoxy-1-methyl-2,3-dihydro-1H-indene-1-carbonyl]amino}-3,4-dihydro-2H-1-benzopyran-2-yl]benzoic acid] gave an EC50 of 1.06 µM and a Maximum % activity of 38.2%.

The molecule `COc1ccc2c(c1)CC[C@@]2(C)C(=O)N[C@@H]1C[C@H](c2cccc(C(=O)O)c2)Oc2ccccc21` [Example 32, 3-[(2R,4R)-4-{[(1R)-5-methoxy-1-methyl-2,3-dihydro-1H-indene-1-carbonyl]amino}-3,4-dihydro-2H-1-benzopyran-2-yl]benzoic acid] yielded an EC50 of 1.21 µM and a Maximum % activity of 20.4%.

`COc1ccc2c(c1)O[C@@H](c1ccc(C(=O)O)cc1)C[C@H]2NC(=O)C1(c2ccccc2C(F)(F)F)CCC1` [Example 82, 4-[(2R,4R)-7-methoxy-4-({1-[2-(trifluoromethyl)phenyl]cyclobutane-1-carbonyl}amino)-3,4-dihydro-2H-1-benzopyran-2-yl]benzoic acid] registered an EC50 of 1.88 µM and a Maximum % activity of 23.3%.
